Usually IC50 stands for the point on the concentration scale where inhibition reaches its midpoint. A low value points to inhibition by little substance. As usually defined, the EC50 is the concentration needed to bring the measured effect to its halfway point. Low readings indicate an effect from little substance, high ones a need for much substance.

We go through 8 compounds from patent publication US12459899B2, “Isoquinolinone derivatives, method for preparing the same, and pharmaceutical composition for preventing or treating poly(ADP-ribose) polymerase-1-related diseases, comprising the same as active ingredient” (DIGMBIO. INC., priority 2019, dated 2025).

The test system of assay [1] is rat model for dry macular degeneration (sodium iodate). The assay is described as follows: Retinal layer protection of rats in sodium iodate model for dry macular degeneration. To be noted: 8-week-old rats, SI 50 mg/kg i.p., compound single intraperitoneal injection 15 mg/kg, H&E. Type of assay: in vivo. The procedure: In order to evaluate the inhibitory effect (protective effect) of the compounds according to the present invention on reducing the thickness of the retinal layer of rats in dry macular degeneration-like cells, the following experiment was performed.
Specifically, 8-week-old rats were intraperitoneally injected with 50 mg/kg of sodium iodate (SI) to degenerate the retinal pigment epithelium and the photoreceptor cell layer to create a simulated animal model for dry macular degeneration. Retinal degeneration was observed 1 week after SI administration.
After a single intraperitoneal injection of Example 46 or Example 1 at a concentration of 15 mg/kg to the rat model for dry macular degeneration, the inhibitory effect (protective effect) on reducing the thickness of the retinal layer of the rats was evaluated.
In order to quantify the reduction of retinal thickness, the eyes extracted from the rats were fixed in a 4% glutaraldehyde solution for 3 hours and then embedded with paraffin. After preparing 5 μm-thick tissue fragments, the fragments were stained with a hematoxylin-eosin (H&E) solution and photographed with an optical microscope to measure the thickness of the retinal outer nuclear layer (ONL) of the retina. As a result, the thickness (μm) of the retinal ONL of the control group was calculated and expressed as 100% (n=3 times). […]

The target in assay [2] is PARP-1 (poly[ADP-ribose] polymerase 1) enzyme (Homo sapiens (Human), UniProt P09874). Description: PARP-1 (poly[ADP-ribose] polymerase 1) enzyme inhibitory ability, Trevigen assay kit. To be noted: for IC50: PARP-1 enzyme activity; for inhibition at 0.001 µM: 1 nM compound, read-out: PAR P-1 Inhibitory ability at 1 nM. Type of assay: biochemical. A digest of the protocol:
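After the 1 hour PARP reaction, wells were washed with PBS containing 0.1% triton X-100 and then PBS. Strep-HRP (50 μL) was bound for 1 hour, wells washed again, and 50 μL of TACS-sapphire substrate developed 15 minutes in the dark. Reactions were stopped with 50 μL of 5% phosphoric acid and absorbance read at 450 nm on a Victor3 reader.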

The test system of a further assay is ARPE-19 cells. Description: Retinal pigment epithelial cell line protection, H2O2-induced apoptosis, MTS activity assay. Type of assay: cell-based, human. To be noted: 0.5 mM H2O2, 6 hours. As for the experimental part: In order to evaluate the protective effect of the compounds according to the present invention on the retinal pigment epithelial cell line under the condition of inducing dry macular degeneration-like apoptosis, the following experiment was performed.
Specifically, ARPE-19 cells, which is a human retinal pigment epithelial cell line, were cultured in DMEM:F12 (Dulbecco's Modified Eagle's Medium: Ham's nutrient mixture F-12) containing 10% fetal bovine serum (FBS) and 1% penicillin/streptomycin. The cells were aliquoted in a well plate so that the number of cells per well was 1×10^4, and incubated in a 37° C. CO2 incubator for 12 hours. DMSO (0.1%) (control group) alone or various concentrations of the compounds of Examples 1 to 276 according to the present invention (experimental groups) were treated in a medium mixed with 0.5 mM H2O2 (control group), and then, the cells were further cultured in a 37° C. CO2 incubator for 6 hours to induce apoptosis.
The degree of apoptosis was measured by an MTS (3-(4,5-dimethylthiazol-2-yl)-5-(3-carboxymethoxyphenyl)-2-(4-sulfophenyl)-2H-tetrazolium) activity assay method manufactured by Promega, the cell MTS activity level in the normal medium condition was set to 100%, and the relative degree of cell protection was converted and determined based on the MTS activity level of the control group in the 0.5 mM H2O2 treatment condition.
The MTS activity assay evaluation method is a method of measuring the activity of NADH dehydrogenase in mitochondria in cells, and MTS is reduced by NADH dehydrogenase to form colored formazan. Through this method, live cells can be quantified, and cell proliferation and apoptosis can be quantified. After the above-mentioned damage stimulus was treated to the retinal pigment epithelial cell line, 15 μL of MTS activity assay kit manufactured by Promega was added to each well, and then reacted in a 37° C. CO2 incubator for 2 hours. The reacted wells were quantified by measuring the absorbance at 450 nm using a microplate reader Victor 3 manufactured by PerkinElmer, Inc., and the results are shown in Table 4 below.

Chain of PARP-1 (poly[ADP-ribose] polymerase 1) enzyme (P09874 whole entry): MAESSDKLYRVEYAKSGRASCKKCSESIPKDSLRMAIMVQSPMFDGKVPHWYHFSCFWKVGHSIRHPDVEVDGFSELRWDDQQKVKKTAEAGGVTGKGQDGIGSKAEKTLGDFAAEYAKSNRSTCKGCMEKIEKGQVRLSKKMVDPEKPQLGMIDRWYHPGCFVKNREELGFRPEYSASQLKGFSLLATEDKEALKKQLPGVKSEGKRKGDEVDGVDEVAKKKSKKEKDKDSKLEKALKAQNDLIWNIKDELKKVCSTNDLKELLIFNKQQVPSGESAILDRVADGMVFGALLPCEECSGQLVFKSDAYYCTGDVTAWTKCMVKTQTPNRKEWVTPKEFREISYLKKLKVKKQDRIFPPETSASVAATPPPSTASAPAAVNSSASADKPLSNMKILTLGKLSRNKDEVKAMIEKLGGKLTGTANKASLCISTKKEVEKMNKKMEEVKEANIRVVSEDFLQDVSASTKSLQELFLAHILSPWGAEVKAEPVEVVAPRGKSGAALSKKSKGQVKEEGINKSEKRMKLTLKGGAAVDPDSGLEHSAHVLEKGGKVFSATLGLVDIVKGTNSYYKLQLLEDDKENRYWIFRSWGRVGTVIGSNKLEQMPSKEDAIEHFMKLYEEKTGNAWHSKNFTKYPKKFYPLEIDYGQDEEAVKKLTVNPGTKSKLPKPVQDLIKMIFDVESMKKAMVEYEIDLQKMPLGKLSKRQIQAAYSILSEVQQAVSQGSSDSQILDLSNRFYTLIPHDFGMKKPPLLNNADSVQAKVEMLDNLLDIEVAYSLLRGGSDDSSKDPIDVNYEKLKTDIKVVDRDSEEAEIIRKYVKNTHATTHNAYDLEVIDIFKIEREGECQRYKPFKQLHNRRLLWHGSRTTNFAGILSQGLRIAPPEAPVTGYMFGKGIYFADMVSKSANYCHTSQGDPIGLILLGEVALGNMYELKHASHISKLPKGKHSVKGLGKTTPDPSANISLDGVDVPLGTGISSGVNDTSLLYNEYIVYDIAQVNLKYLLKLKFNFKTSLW

As to `N#Cc1ccc(N2CCN(CCCc3cc4cccc(F)c4c(=O)[nH]3)CC2)cc1` [Example 1, 4-(4-(3-(8-fluoro-1-oxo-1,2-dihydroisoquinolin-3-yl)propyl)piperazin-1-yl)benzonitrile], in assay [1], the “protection of retinal outer nuclear layer (ONL) thickness” value is given as “the retina was protected”. This compound also gave an IC50 in assay [2] of 0.0023 µM.
For `N#Cc1ccc(C2=CCN(CCCc3cc4cccc(F)c4c(=O)[nH]3)CC2)nc1` [Example 46, 1′-(3-(8-fluoro-1-oxo-1,2-dihydroisoquinolin-3-yl)propyl)-1′,2′,3′,6′-tetrahydro-[2,4′-bipyridine]-5-carbonitrile], the “protection of retinal outer nuclear layer (ONL) thickness” value in assay [1] is listed as “the retina was protected”. In assay [2], the inhibition at 0.001 µM lay in the range of 50 to 80% and the midpoint of inhibition, the IC50, lay at 0.00166 µM.
On to `N#Cc1ccc(C2=CCN(C(=O)CCc3cc4cccc(F)c4c(=O)[nH]3)CC2)nc1` [Example 88, 1′-(3-(8-fluoro-1-oxo-1,2-dihydroisoquinolin-3-yl)propanoyl)-1′,2′,3′,6′-tetrahydro-[2,4′-bipyridine]-5-carbonitrile], for which the response in the assay on ARPE-19 cells (Homo sapiens, ARPE-19, 6 h) was half-maximal at 0.629 µM (EC50). The inhibition at 0.001 µM in assay [2] is < 50%.
In the case of `Cc1cc(F)cc2c(=O)[nH]c(CCC(=O)N3CC=C(c4ccc(C#N)cn4)CC3)cc12` [Example 165, 1′-(3-(7-fluoro-5-methyl-1-oxo-1,2-dihydroisoquinolin-3-yl)propanoyl)-1′,2′,3′,6′-tetrahydro-[2,4′-bipyridine]-5-carbonitrile], the EC50 in the assay on ARPE-19 cells was 0.108 µM; with ARPE-19 cells (Homo sapiens, ARPE-19, 6 h) it was < 0.15 µM. Moreover, in assay [2], the inhibition at 0.001 µM is < 50%.
Take `O=c1[nH]c(CCCN2C3CCC2CN(c2ccc(Cl)cc2)C3)cc2ncccc12` [Example 228, 7-(3-(3-(4-chlorophenyl)-3,8-diazabicyclo[3.2.1]octan-8-yl)propyl)-1,6-naphthyridin-5(6H)-one]: the EC50 with ARPE-19 cells was 0.144 µM; with ARPE-19 cells (Homo sapiens, ARPE-19, 6 h), < 0.15 µM. The inhibition at 0.001 µM in assay [2] lay within 50 to 80%.
For the compound `N#Cc1ccc(OC2CC3CCC(C2)N3C(=O)CCc2cc3cccc(F)c3c(=O)[nH]2)cc1` (stereo not shown) [Example 274, 4-((8-(3-(8-fluoro-1-oxo-1,2-dihydroisoquinolin-3-yl)propanoyl)-8-azabicyclo[3.2.1]octan-3-yl)oxy)benzonitrile], the inhibition at 0.001 µM in assay [2] is < 50%.
Regarding `Cc1ccc(F)c2c(=O)[nH]c(CCC(=O)N3CC(NC(=O)C4CC4)C3)cc12` [Example 275, N-(1-(3-(8-fluoro-5-methyl-1-oxo-1,2-dihydroisoquinolin-3-yl)propanoyl)azetidin-3-yl)cyclopropanecarboxamide], the inhibition at 0.001 µM in assay [2] was < 50%.
`Cc1ccc(F)c2c(=O)[nH]c(CCC(=O)N3CCC(NC(=O)C4CC4)CC3)cc12` [Example 276, N-(1-(3-(8-fluoro-5-methyl-1-oxo-1,2-dihydroisoquinolin-3-yl)propanoyl)piperidin-4-yl)cyclopropanecarboxamide]: the inhibition at 0.001 µM in assay [2] was < 50%.
